This is an account of results in US20260078122A1, “INDAZOLE COMPOUNDS AS PKMYT1 KINASE INHIBITORS” (Hoffmann-La Roche Inc., priority 2023, published 2026).

Each structure is given as a SMILES string. Where only a bound is given, the exact number is not on record here.

In the assay the target is T1, recombinant human Myt1 (full length PKMYT1) (Homo sapiens, UniProt Q99640).
T1 sequence (Q99640 1-499): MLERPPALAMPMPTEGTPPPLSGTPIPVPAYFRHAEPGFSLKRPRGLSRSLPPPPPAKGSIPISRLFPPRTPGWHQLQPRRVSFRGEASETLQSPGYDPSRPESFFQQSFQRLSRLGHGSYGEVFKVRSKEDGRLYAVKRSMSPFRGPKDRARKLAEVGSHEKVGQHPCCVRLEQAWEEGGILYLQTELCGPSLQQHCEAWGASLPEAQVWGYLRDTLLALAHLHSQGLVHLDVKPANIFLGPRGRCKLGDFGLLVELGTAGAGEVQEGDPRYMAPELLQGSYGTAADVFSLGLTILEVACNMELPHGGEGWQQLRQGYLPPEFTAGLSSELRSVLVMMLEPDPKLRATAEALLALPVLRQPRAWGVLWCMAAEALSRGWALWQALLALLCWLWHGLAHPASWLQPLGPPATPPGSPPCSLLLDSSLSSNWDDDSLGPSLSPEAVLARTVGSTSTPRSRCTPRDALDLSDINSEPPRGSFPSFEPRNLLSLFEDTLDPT
The assay can be described thus: ADP-Glo assay (Myt1 kinase activity).
A word on the IC50: it is the concentration at which inhibition is half-maximal. Turning to `Cc1cc2[nH]c(=O)c(N)c(-c3ccc(F)c4[nH]ncc34)c2nc1OCC1(C#N)CC1` [Example 58, 1-[[7-Amino-8-(7-fluoro-1H-indazol-4-yl)-3-methyl-6-oxo-5H-1,5-naphthyridin-2-yl]oxymethyl]cyclopropanecarbonitrile], the IC50 is less than 0.01 µM.

Consider `CCc1cnc(C)c2[nH]c(=O)c(N)c(-c3ccc(F)c4[nH]ncc34)c12` [Example 178, 3-Amino-5-ethyl-4-(7-fluoro-1H-indazol-4-yl)-8-methyl-1H-1,7-naphthyridin-2-one], for which the IC50 is 0.0181 µM.

For the compound `COCc1cnc(C)c2[nH]c(=O)c(N)c(-c3ccc(F)c4[nH]ncc34)c12` [Example 193, 3-Amino-4-(7-fluoro-1H-indazol-4-yl)-5-(methoxymethyl)-8-methyl-1H-1,7-naphthyridin-2-one], the IC50 is 0.0333 µM.

Take `COc1cc(C)cc2[nH]c(=O)c(N)c(-c3ccc(F)c4[nH]ncc34)c12` [Example 102, 3-Amino-4-(7-fluoro-1H-indazol-4-yl)-5-methoxy-7-methyl-1H-quinolin-2-one]: the IC50 worked out at 0.016 µM. For the compound `Cc1ncc(F)c2c(-c3ccc(F)c4[nH]ncc34)c(N)c(=O)[nH]c12` [Example 179, 3-Amino-5-fluoro-4-(7-fluoro-1H-indazol-4-yl)-8-methyl-1H-1,7-naphthyridin-2-one], the IC50 came to 0.0125 µM.

Turning to `Nc1c(-c2ccc(F)c3[nH]ncc23)c2ncc(-c3nccs3)cc2[nH]c1=O` [Example 16, 3-Amino-4-(7-fluoro-1H-indazol-4-yl)-7-thiazol-2-yl-1H-1,5-naphthyridin-2-one], the IC50 was determined as 0.0113 µM. As for `Cc1cc2[nH]c(=O)c(N)c(-c3ccc(F)c4[nH]ncc34)c2cc1C1CCN(CC(F)(F)F)CC1` [Example 106, 3-Amino-4-(7-fluoro-1H-indazol-4-yl)-7-methyl-6-[1-(2,2,2-trifluoroethyl)-4-piperidyl]-1H-quinolin-2-one], the IC50 is 0.0145 µM. With `Cc1cc2[nH]c(=O)c(N)c(-c3ccc(F)c4[nH]ncc34)c2nc1OCC(F)F` [Example 059, 3-Amino-6-(2,2-difluoroethoxy)-4-(7-fluoro-1H-indazol-4-yl)-7-methyl-1H-1,5-naphthyridin-2-one], the IC50 was less than 0.01 µM. To `COC(C)(C)C#Cc1cc(C)c2[nH]c(=O)c(N)c(-c3ccc(F)c4[nH]ncc34)c2n1` [Example 149, 3-Amino-4-(7-fluoro-1H-indazol-4-yl)-6-(3-methoxy-3-methyl-but-1-ynyl)-8-methyl-1H-1,5-naphthyridin-2-one] belongs less than 0.01 µM; to `Cc1c(Br)nc2c(-c3ccc(F)c4[nH]ncc34)c(N)c(=O)[nH]c2c1Cl` [Example 108, 3-Amino-6-bromo-8-chloro-4-(7-fluoro-1H-indazol-4-yl)-7-methyl-1H-1,5-naphthyridin-2-one], 0.0151 µM; to `C=C(C)c1cnc2c(-c3ccc(F)c4[nH]ncc34)c(N)c(=O)[nH]c2c1C` [Example 125, 3-Amino-4-(7-fluoro-1H-indazol-4-yl)-7-isopropenyl-8-methyl-1H-1,5-naphthyridin-2-one], less than 0.01 µM. To `Cc1nc2c(-c3ccc(F)c4[nH]ncc34)c(N)c(=O)[nH]c2c(C)c1Cl` [Example 56, 3-Amino-7-chloro-4-(7-fluoro-1H-indazol-4-yl)-6,8-dimethyl-1H-1,5-naphthyridin-2-one] belongs less than 0.01 µM. Turning to `Cc1cc2[nH]c(=O)c(N)c(-c3ccc(F)c4[nH]ncc34)c2nc1OCC(F)(F)F` [Example 066, 3-Amino-4-(7-fluoro-1H-indazol-4-yl)-7-methyl-6-(2,2,2-trifluoroethoxy)-1H-1,5-naphthyridin-2-one], the IC50 came to 0.0116 µM.

As for `COc1nc2c(-c3ccc(F)c4[nH]ncc34)c(N)c(=O)[nH]c2cc1C` [Example 060, 3-Amino-4-(7-fluoro-1H-indazol-4-yl)-6-methoxy-7-methyl-1H-1,5-naphthyridin-2-one], the IC50 was less than 0.01 µM. In the case of `Cc1c(C2CCCC2)cnc2c(-c3ccc(F)c4[nH]ncc34)c(N)c(=O)[nH]c12` [Example 126, 3-Amino-7-cyclopentyl-4-(7-fluoro-1H-indazol-4-yl)-8-methyl-1H-1,5-naphthyridin-2-one], the IC50 was less than 0.01 µM.

For the compound `Cc1c(C2CC2)nc2c(-c3ccc(F)c4[nH]ncc34)c(N)c(=O)[nH]c2c1Cl` [Example 109, 3-Amino-8-chloro-6-cyclopropyl-4-(7-fluoro-1H-indazol-4-yl)-7-methyl-1H-1,5-naphthyridin-2-one], the IC50 was less than 0.01 µM. For the compound `Cc1cc2[nH]c(=O)c(N)c(-c3ccc(F)c4[nH]ncc34)c2nc1C(F)(F)F` [Example 097, 3-Amino-4-(7-fluoro-1H-indazol-4-yl)-7-methyl-6-(trifluoromethyl)-1H-1,5-naphthyridin-2-one], the IC50 is 0.0249 µM. As to `COc1ncc(Cl)c2[nH]c(=O)c(N)c(-c3ccc(F)c4[nH]ncc34)c12` [Example 171, 3-Amino-8-chloro-4-(7-fluoro-1H-indazol-4-yl)-5-methoxy-1H-1,6-naphthyridin-2-one], the IC50 turned out to be 0.0158 µM.

With `Cc1cc2[nH]c(=O)c(N)c(-c3ccc(Cl)c4[nH]ncc34)c2nc1C` [Example 159, 3-Amino-4-(7-chloro-1H-indazol-4-yl)-6,7-dimethyl-1H-1,5-naphthyridin-2-one], the IC50 is less than 0.01 µM. For the compound `Cc1ncc(OCCC(F)F)c2c(-c3ccc(F)c4[nH]ncc34)c(N)c(=O)[nH]c12` [Example 188, 3-Amino-5-(3,3-difluoropropoxy)-4-(7-fluoro-1H-indazol-4-yl)-8-methyl-1H-1,7-naphthyridin-2-one], the IC50 amounted to 0.015 µM. As to `Cc1cc2[nH]c(=O)c(N)c(-c3ccc(F)c4[nH]ncc34)c2nc1-c1nccs1` [Example 153, 3-Amino-4-(7-fluoro-1H-indazol-4-yl)-7-methyl-6-thiazol-2-yl-1H-1,5-naphthyridin-2-one], the IC50 worked out at 0.0118 µM. Take `Cc1cc(Cl)c2c(-c3ccc(F)c4[nH]ncc34)c(N)c(=O)[nH]c2c1` [Example 103, 3-Amino-5-chloro-4-(7-fluoro-1H-indazol-4-yl)-7-methyl-1H-quinolin-2-one]: the IC50 was less than 0.01 µM. Turning to `CCc1nc2c(-c3ccc(F)c4[nH]ncc34)c(N)c(=O)[nH]c2cc1C` [Example 157, 3-Amino-6-ethyl-4-(7-fluoro-1H-indazol-4-yl)-7-methyl-1H-1,5-naphthyridin-2-one], the IC50 was found to be 0.0156 µM.

Turning to `Cc1c(C2CC2(C)C)cnc2c(-c3ccc(F)c4[nH]ncc34)c(N)c(=O)[nH]c12` (centres unmarked) [Example 130, 3-Amino-7-(2,2-dimethylcyclopropyl)-4-(7-fluoro-1H-indazol-4-yl)-8-methyl-1H-1,5-naphthyridin-2-one], the IC50 turned out to be 0.0123 µM. In the case of `Cc1cc2[nH]c(=O)c(N)c(-c3ccc(F)c4[nH]ncc34)c2nc1OCCC(F)F` [Example 081, 3-Amino-6-(3,3-difluoropropoxy)-4-(7-fluoro-1H-indazol-4-yl)-7-methyl-1H-1,5-naphthyridin-2-one], the half-maximal inhibitory concentration (IC50) worked out at 0.0146 µM. For `Cc1cc2[nH]c(=O)c(N)c(-c3ccc(F)c4[nH]ncc34)c2nc1OC1CC(C#N)C1` (centres unmarked) [Example 079, 3-[[7-Amino-8-(7-fluoro-1H-indazol-4-yl)-3-methyl-6-oxo-5H-1,5-naphthyridin-2-yl]oxy]cyclobutanecarbonitrile], the IC50 was found to be 0.0178 µM.
